Reference: US10940139B2, “Compounds that interact with the Ras superfamily for the treatment of cancers, inflammatory diseases, rasopathies, and fibrotic disease” (Shy Therapeutics LLC, priority 2017, dated 2021)

Test system: MIA-PACA2 pancreatic cancer cell lines
Experiment: Cell proliferation assay (CellTiter 96 AQueous One)
Type: cell-based
Conditions: Homo sapiens, MIA PaCa-2; at 30 μM, MIA-PACA2

Row | Compound | inhibition at 30 µM [%]
1 | COc1ccc2c(ccn2CC(=O)Nc2nnc(-c3ccccn3)[nH]2)c1 [drawing 1399] | 76 to 100
2 | COc1ccc(CN(CC[S+]([O-])c2cc(Cl)ccc2Cl)C2CC2)cc1 (centres unmarked) [drawing 1530] | 51 to 75
3 | Oc1nc(-c2ccccn2)nc2c(-c3ccc(OC4CCOCC4)cc3)csc12 [drawing 1743] | 76 to 100
4 | COC(=O)c1cc(NC(=O)CCc2c(C)nc(-c3ccccn3)nc2O)ccc1Cl [drawing 1506] | 76 to 100
5 | O=C(Nc1nnc(-c2ccccn2)[nH]1)c1ccc(Oc2ccccc2)nc1 [drawing 1410] | 51 to 75
6 | O=C(CCc1cnn(-c2ccccc2)c1)Nc1nnc(-c2ccccn2)[nH]1 [drawing 1383] | 76 to 100
7 | COCCOCCN(C)C(=O)c1csc2c(O)nc(-c3ccccn3)nc12 [drawing 1575] | 25 to 50
8 | Oc1nc(-c2ccccn2)nc2c1ncn2-c1ccccc1 [drawing 1583] | 25 to 50
9 | CCc1cc(NNC(=O)c2ccc(C#N)cc2)nc(-c2ccccn2)n1 [drawing 1511] | 76 to 100
10 | COc1ccc(C2CN(C(=O)c3csc4c(O)nc(-c5ccccn5)nc34)CCN2)cc1 (centres unmarked) [drawing 1667] | 25 to 50
11 | COc1cccc(CN2CCN(C(=O)c3csc4c(O)nc(-c5ccccn5)nc34)CC2)c1 [drawing 1656] | 76 to 100
12 | COCCNc1nc(-c2ccccn2)nc2scc(-c3ccccc3)c12 [drawing 1625] | 76 to 100
13 | O=C(Nc1nc(-c2ccccn2)cs1)c1ccc2nccnc2c1 [drawing 1477] | 76 to 100
14 | O=C(COCc1cccnc1)Nc1nc(-c2ccccn2)nc2sccc12 [drawing 1705] | 76 to 100
15 | O=C(Cn1c(=O)[nH]c2ccccc21)Nc1nnc(-c2ccccn2)[nH]1 [drawing 1448] | 25 to 50
16 | CC(COCc1ccccc1)C(=O)Nc1nnc(-c2ccccn2)[nH]1 (centres unmarked) [drawing 1429] | 25 to 50

Row | Compound | inhibition at 30 µM [%]
17 | O=c1nc(-c2ccccn2)[nH]c2scc(-c3ccccc3Cl)c12 [drawing 1492] | 76 to 100
18 | O=C(c1csc2c(O)nc(-c3ccccn3)nc12)N1CCN(c2ccc(F)cc2)CC1 [drawing 1648] | 76 to 100
19 | c1ccc(-c2nc(NCC3CCCO3)c3ccsc3n2)nc1 (centres unmarked) [drawing 1591] | 76 to 100
20 | CN(CCc1cccc(C#N)c1)C(=O)c1csc2nc(-c3ccccn3)nc(N3CCOCC3)c12 [drawing 1681] | 76 to 100
21 | CS(=O)(=O)N1CCCc2cc(C(=O)N3CCCc4c(O)nc(-c5ccccn5)nc43)ccc21 [drawing 1547] | 76 to 100
22 | CCN(CC)C(=O)c1sc2[nH]c(-c3ccccn3)nc(=O)c2c1C [drawing 1496] | 76 to 100
23 | Oc1nc(-c2ccccn2)nc2c(-c3cc(C(F)(F)F)ccc3F)csc12 [drawing 1787] | 76 to 100
24 | COc1ccc(CC(=O)Nc2nnc(-c3ccccn3)[nH]2)cc1 [drawing 1408] | 76 to 100
25 | O=C(CC(c1ccccc1)c1ccccc1)N1CCCc2c(O)nc(-c3ccccn3)nc21 [drawing 1555] | 76 to 100
26 | O=c1nc(-c2ccccn2)[nH]c2sc(-c3ccccc3)cc12 [drawing 1495] | 76 to 100
27 | CC(C)(C)c1nc(C(=O)Nc2nnc(-c3ccccn3)[nH]2)cs1 [drawing 1454] | 76 to 100
28 | COCCCCNC(=O)c1csc2nc(-c3ccccn3)nc(N(CCOC)CCOC)c12 [drawing 1686] | 76 to 100
29 | Oc1nc(-c2ccccn2)nc2c(-c3ccccc3C(F)F)csc12 [drawing 1759] | 76 to 100
30 | CCOC(=O)NC1CCN(C(=O)c2csc3c(O)nc(-c4ccccn4)nc23)CC1 [drawing 1574] | 51 to 75
31 | O=C(Nc1nnc(-c2ccccn2)[nH]1)C1CC1c1ccc(F)cc1 (centres unmarked) [drawing 1432] | 51 to 75
32 | COc1cc(CCN(C)C(=O)c2csc3nc(-c4ccccn4)nc(N4CCOCC4)c23)ccn1 [drawing 1674] | 76 to 100

Test system: MAPK phosphorylation in PANC-1 pancreatic cancer cell line
Experiment: MAPK cell-based phosphorylation assay (cell-direct ELISA, EGF stimulation)
Conditions: Homo sapiens
Protocol: Cell lines: Tumor-derived pancreatic cancer cell lines PANC-1 were purchased from ATCC and were maintained according to ATCC recommendation.
Method: Cells were plated at 7500 cells/well density in 96-wells plate, starved over night, and the small molecules to be tested were added to the cells in the final concentration of 30 μM with 0.3% DMSO for 6 hours incubation at 37° C. For IC50 value determination, serial dilutions of compounds were added to cells under the same conditions. Next, cells were stimulated with 1.5 ng/ml EGF for 15 min. followed by cell fixation with 4% Formaldehyde in PBS at RT for 20 min. Phosphorylation level of MAPK was determined by Cell-direct ELISA.
Cell-direct ELISA: For each well, cells were permeabilized with PBS-Triton 0.1%, quenched with H2O2 0.6% in PBS-Triton 0.1%, and probed with anti-phospho-MAPK antibodies (R&D Systems) followed by HRP-conjugated secondary antibody (Jackson Immunoresearch, West Grove, Pa.). Next, a solution 50 μM of the fluorescent substrate AmpliFlu Red (Sigma) was added and incubated at RT for 20 min. At the end of the incubation time, fluorescence was measured at 595 nm on a microplate reader (AF2200; Eppendorf, Inc., Hamburg, Germany).

Row | IC50 [µM] | Compound
33 | 2 to 10 | N#Cc1ncn(-c2nc(-c3ccccn3)nc3sc(-c4ccccc4)cc23)n1 [drawing 1083]
34 | 2 to 10 | CC(C)(C)c1ccc(-c2csc3c(O)nc(-c4ccccn4)nc23)cc1 [drawing 1191]
35 | 2 to 10 | Oc1nc(-c2ccccn2)nc2scc(Br)c12 [drawing 1080]
36 | < 2 | Oc1nc(-c2ccccn2)nc2c(-c3ccccc3)csc12 [drawing 1074]

Same assay, conditions: Homo sapiens, * = tested at 10 μM

Row | Compound | inhibition at 10 µM [%]
37 | CCN(CC)CCOc1nc(-c2nccn2C)nc2sc(-c3ccccc3)c(-c3ccccc3)c12 [drawing 1333] | 76 to 100
38 | Oc1nc(-c2ccccn2)nc2c(-c3ccc4c(c3)OCO4)csc12 [drawing 1218] | 76 to 100
39 | COCCNc1nc(-c2ccccn2)nc(-c2cccc(OCCN(C)C)c2)c1Oc1ccccc1 [drawing 1289] | 25 to 50
40 | Cc1cc(OC(F)F)ccc1-c1csc2c(O)nc(-c3ccccn3)nc12 [drawing 1217] | 1 to 25
41 | O=C(NCCc1ccnc(O)n1)c1csc2nc(-c3ccccn3)nc(N3CCOCC3)c12 [drawing 1235] | 1 to 25
42 | CC(C)(C)c1ccc(-c2csc3c(O)nc(-c4ccccn4)nc23)cc1 [drawing 1191] | 76 to 100
43 | CC(C)Oc1ccc(-c2csc3c(O)nc(-c4nccn4C)nc23)cc1F [drawing 1369] | 25 to 50
44 | CC(C)COc1ccc(-c2csc3c(O)nc(-c4ccccn4)nc23)cn1 [drawing 1216] | 51 to 75
45 | CCOCCOc1nc(-c2nccn2C)nc2sc(-c3ccccc3)c(-c3ccccc3)c12 [drawing 1332] | 0
46 | COCCNc1nc(-c2nccn2C)nc2sc(-c3ccccc3)c(-c3ccccc3Cl)c12 [drawing 1340] | 76 to 100
47 | Oc1nc(-c2ccccn2)nc2c(-c3ccccc3C(F)F)csc12 [drawing 1221] | 76 to 100
48 | COCC(C)Nc1nc(-c2ccccn2)nc2sc(-c3ccncc3)c(-c3ccccc3)c12 (centres unmarked) [drawing 1301] | 0
49 | Oc1nc(-c2ccccn2)nc2c(-c3ccc(OC(F)F)cc3F)csc12 [drawing 1215] | 51 to 75
50 | Cn1ccnc1-c1nc(NCCOC2CC2)c2c(-c3ccccc3)c(-c3ccccc3)sc2n1 [drawing 1336] | 76 to 100
51 | Cn1cnc(-c2nc(O)c3sc(-c4ccncc4)c(-c4ccccc4)c3n2)c1 [drawing 1309] | 0
52 | Cc1nn(C(C)C)cc1-c1csc2c(O)nc(-c3ccccn3)nc12 [drawing 1267] | 0
53 | Cn1ccnc1-c1nc(O)c2scc(-c3cccc(C(F)(F)F)c3)c2n1 [drawing 1358] | 25 to 50
54 | O=C(NCCc1cnc(O)nc1)c1csc2nc(-c3ccccn3)nc(N3CCS(=O)(=O)CC3)c12 [drawing 1196] | 1 to 25
55 | COC(=O)c1csc2nc(-c3ccccn3)nc(N)c12 [drawing 1232] | 25 to 50
56 | O=C(CCc1nn[nH]n1)Nc1nc(-c2ccccn2)nc2sccc12 [drawing 1227] | 25 to 50
57 | Cc1ccc(OC2CCCC2)c(-c2csc3c(O)nc(-c4ccccn4)nc23)c1 [drawing 1189] | 25 to 50

Same assay, conditions: Homo sapiens, at 30 μM

Row | Compound | inhibition at 30 µM [%]
58 | O=C(c1csc2c(O)nc(-c3ccccn3)nc12)N1CCN(c2ccccc2Cl)CC1 [drawing 1119] | 1 to 25
59 | N#Cc1ncn(-c2nc(-c3ccccn3)nc3sc(-c4ccccc4)cc23)n1 [drawing 1083] | 76 to 100
60 | COCCNc1nc(-c2ccccn2)nc2scc(-c3ccccc3)c12 [drawing 1108] | 76 to 100
61 | COC(=O)C(C)CN(Cc1cc(Br)ccc1[N+](=O)[O-])C1CC1 (centres unmarked) [drawing 1054] | 1 to 25
62 | CS(=O)(=O)CCCNC(=O)c1csc2nc(-c3ccccn3)nc(N3CCOCC3)c12 [drawing 1170] | 25 to 50
63 | CNC(=O)CN1CCN(c2nc(-c3ccccn3)nc3scc(-c4ccccc4)c23)CC1 [drawing 1092] | 1 to 25
64 | COc1ccccc1C1CN(C(=O)c2csc3c(O)nc(-c4ccccn4)nc23)CCO1 (centres unmarked) [drawing 1148] | 1 to 25
65 | O=C(C1CCN(c2nc(-c3ccccn3)nc3scc(-c4ccccc4)c23)CC1)N1CCCCC1 [drawing 1105] | 1 to 25
66 | O=C(c1csc2c(O)nc(-c3ccccn3)nc12)N1CCN(c2ccccc2F)CC1 [drawing 1121] | 1 to 25
67 | Cc1cnc(-c2ccccn2)nc1NC(=O)C(C)c1ccc(C#N)cc1 (centres unmarked) [drawing 1160] | 1 to 25
68 | O=C(c1csc2c(O)nc(-c3ccccn3)nc12)N1CCN(c2ccc(F)cc2)CC1 [drawing 1138] | 1 to 25
69 | Oc1nc(-c2ccccn2)nc2scc(Br)c12 [drawing 1080] | 76 to 100
70 | COc1cccc(C2CN(C(=O)c3csc4c(O)nc(-c5ccccn5)nc34)CCN2)c1 (centres unmarked) [drawing 1150] | 1 to 25
71 | O=C(Nc1nnc(-c2ccccn2)[nH]1)c1ccn(-c2ccccc2)n1 [drawing 998] | 1 to 25
72 | CSc1nc(C2CC2)cc(C(=O)NCCc2ccc(S(=O)(=O)NC(=O)c3cc(C4CC4)nc(SC)c3C#N)cc2)c1C#N [drawing 1055] | 76 to 100
73 | Oc1nc(-c2ccccn2)nc2c(-c3ccccc3)csc12 [drawing 1074] | 76 to 100
74 | O=C(Cc1ccc2c(c1)OCCO2)Nc1nnc(-c2ccccn2)[nH]1 [drawing 1026] | 1 to 25
75 | O=C(Nc1nc(-c2ccccn2)cs1)c1ccc(F)cc1 [drawing 1035] | 1 to 25
76 | c1ccc(-c2csc3nc(-c4ccccn4)nc(N4CCN(CC5CCCO5)CC4)c23)cc1 (centres unmarked) [drawing 1088] | 1 to 25
77 | O=C(c1csc2c(O)nc(-c3ccccn3)nc12)N1CCNC(c2cccc(F)c2)C1 (centres unmarked) [drawing 1130] | 1 to 25
